From BindingDB's records for doi:10.7270/Q2MK6B9H (Nmmlsc, 2009)

Biological target: Ras-related protein Rab-7a (Canis lupus familiaris, UniProt P18067)
Assay: inhibition of fluorescent GTP loading on Rab7 – biochemical, dog Rab7, bead multiplex flow cytometry, Bodipy-FL-GTP, pyrazoline series, SAR follow-up (AID 2041)
[1] = inactive by the depositor's call

Chain of Ras-related protein Rab-7a (P18067 whole entry): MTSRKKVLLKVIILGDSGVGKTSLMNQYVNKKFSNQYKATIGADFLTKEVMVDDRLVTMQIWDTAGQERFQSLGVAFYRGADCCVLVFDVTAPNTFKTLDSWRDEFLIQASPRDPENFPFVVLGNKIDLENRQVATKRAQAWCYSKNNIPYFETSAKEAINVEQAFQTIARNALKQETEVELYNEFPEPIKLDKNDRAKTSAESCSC

| Structure (SMILES) | EC50 [µM] | EC50 [1] [µM] |
| --- | --- | --- |
| COc1ccc(C2CC(c3ccc(F)cc3)=NN2c2ccc(S(N)(=O)=O)cc2)cc1 (centres undefined) [4-[5-(4-fluorophenyl)-3-(4-methoxyphenyl)-3,4-dihydropyrazol-2-yl]benzenesulfonamide] | > 30 |  |
| COc1ccc(-c2cc(-c3ccccc3)nn2-c2ccc(S(N)(=O)=O)cc2)cc1 [4-[5-(4-methoxyphenyl)-3-phenylpyrazol-1-yl]benzenesulfonamide] | > 30 |  |
| COc1ccc(C2CC(C3CCCCC3)=NN2c2ccc(S(N)(=O)=O)cc2)cc1 (centres undefined) [4-[5-cyclohexyl-3-(4-methoxyphenyl)-3,4-dihydropyrazol-2-yl]benzenesulfonamide] | > 30 |  |
| O=S(=O)(c1ccc(N2N=C(c3ccc(Br)cc3)CC2c2ccccc2)cc1)C(F)F (centres undefined) [5-(4-bromophenyl)-2-[4-(difluoromethylsulfonyl)phenyl]-3-phenyl-3,4-dihydropyrazole] | > 30 |  |
| FC(F)(F)c1ccccc1C1CC(c2ccc(Br)cc2)=NN1c1ccccc1 (centres undefined) [5-(4-bromophenyl)-2-phenyl-3-[2-(trifluoromethyl)phenyl]-3,4-dihydropyrazole] | > 30 |  |
| O=[N+]([O-])c1cccc(C2C[C-](c3ccc(F)cc3)N=[N+]2c2ccccc2)c1 (centres undefined) [5-(4-fluorophenyl)-3-(3-nitrophenyl)-2-phenyl-3,4-dihydropyrazole] | > 30 |  |
| Cc1ccc(-c2cc(C(F)(F)F)nn2-c2ccc(S(N)(=O)=O)cc2)cc1 [Celecoxib] | > 30 |  |
| COc1ccc(C2CC(c3ccc(N(C)C)cc3)=NN2c2ccc(S(N)(=O)=O)cc2)cc1 (centres undefined) [KUC103422N] | > 30 |  |
| COc1ccc(C2CC(c3cccs3)=NN2c2ccc(S(N)(=O)=O)cc2)cc1 (centres undefined) [KUC103438N] | > 30 |  |
| NS(=O)(=O)c1ccc(N2N=C(c3ccccc3)CC2c2ccccc2Cl)cc1 (centres undefined) [KUC103446N] | > 30 |  |
| COc1ccc(C2CC(C(C)(C)C)=NN2c2ccc(S(N)(=O)=O)cc2)cc1 (centres undefined) [KUC103450N] | > 30 |  |
| COc1ccc(C2CC(c3ccccc3C(F)(F)F)=NN2c2ccc(S(N)(=O)=O)cc2)cc1 (centres undefined) [KUC103474N] | > 30 |  |
| Cc1ccccc1N1N=C(c2ccccc2)CC1c1ccc(N(C)C)cc1 (centres undefined) [N,N-dimethyl-4-[2-(2-methylphenyl)-5-phenyl-3,4-dihydropyrazol-3-yl]aniline] | > 30 |  |
| COc1ccc(C2CC(c3ccccc3)=NN2c2ccc(S(N)(=O)=O)cc2)cc1OC (centres undefined) [UNM-0000305823] | > 30 |  |
| COc1ccc(C2CC(c3ccc(Br)cc3)=NN2c2ccccc2Cl)cc1 (centres undefined) [UNM-0000305832] | > 30 |  |
| COc1ccc(C2=NN(c3ccccc3)C(c3ccc(Cl)cc3)C2)cc1 (centres undefined) [UNM-0000305833] |  | 0.679 |
| O=S(=O)(O)c1ccc(N2N=C(c3ccccc3)CC2c2ccccc2)cc1 (centres undefined) [UNM-0000305834] | > 30 |  |
| Cc1cccc(N2N=C(c3ccccc3)CC2c2ccccc2)c1 (centres undefined) [UNM-0000305835] | > 30 |  |
| O=[N+]([O-])c1ccc([N+]2=N[C-](c3ccccc3)CC2c2ccc(O)cc2)cc1 (centres undefined) [UNM-0000305838] | > 30 |  |
| CN(C)c1ccc(C2CC(c3ccc(Br)cc3)=NN2c2ccccc2)cc1 (centres undefined) [UNM-0000305846] | > 30 |  |
| CN(C)c1ccc(C2CC(c3ccc(Cl)cc3)=NN2c2ccccc2)cc1 (centres undefined) [UNM-0000305847] | > 30 |  |
| COc1ccc(C2=NN(c3ccccc3)C(c3ccc(OC)c(OC)c3C(=O)O)C2)cc1 (centres undefined) [UNM-0000305848] | > 30 |  |
| Cc1ccccc1[N+]1=N[C-](c2ccccc2)CC1c1cccc([N+](=O)[O-])c1 (centres undefined) [UNM-0000305854] | > 30 |  |
| COc1ccccc1N1N=C(c2ccccc2)CC1c1ccccc1 (centres undefined) [UNM-0000305855] | 10.2 |  |
| O=[N+]([O-])c1cccc(C2C[C-](c3ccccc3)N=[N+]2c2ccccc2)c1 (centres undefined) [UNM-0000305857] | > 30 |  |
| COc1ccc(C2CC(c3ccc(Cl)cc3)=NN2c2ccccc2)cc1OC (centres undefined) [UNM-0000305858] | > 30 |  |
| FC(F)(F)c1cccc(N2N=C(c3ccc(Cl)cc3)CC2c2ccccc2Cl)c1 (centres undefined) [UNM-0000305859] | > 30 |  |
| COc1ccc(C2=NN(c3ccccc3F)C(c3ccc(F)cc3)C2)cc1 (centres undefined) [UNM-0000305860] | > 30 |  |

Next, values leading:

| EC50 [µM] | EC50 [1] [µM] | Structure (SMILES) |
| --- | --- | --- |
| > 30 |  | COc1ccc(C2=NN(c3ccc(Cl)cc3)C(c3ccccc3F)C2)cc1 (centres undefined) [UNM-0000305863] |
| > 30 |  | COc1ccc(C2CC(c3ccc(F)cc3)=NN2c2ccccc2)cc1OC (centres undefined) [UNM-0000305864] |
| > 30 |  | CN(C)c1ccc(C2CC(c3ccc(F)cc3)=NN2c2ccccc2)cc1 (centres undefined) [UNM-0000305866] |
| > 30 |  | COc1ccc(C2CC(c3ccccc3)=NN2c2ccc(C(N)=O)cc2)cc1 (centres undefined) [UNM-0000305870] |
| > 30 |  | COc1ccc(C2CC(c3ccccc3)=NN2c2ccc(C(=O)O)cc2)cc1 (centres undefined) [UNM-0000306085] |
| > 30 |  | COc1ccc(C2CC(c3ccccc3F)=NN2c2ccc(S(N)(=O)=O)cc2)cc1 (centres undefined) [UNM-0000306110] |
| > 30 |  | COc1ccc(C2CC(c3ccccc3Br)=NN2c2ccc(S(N)(=O)=O)cc2)cc1 (centres undefined) [UNM-0000306112] |
| > 30 |  | COc1ccc(C2CC(c3cccc(Br)c3)=NN2c2ccc(S(N)(=O)=O)cc2)cc1 (centres undefined) [UNM-0000306113] |
|  | 0.141 | COc1ccc(C2CC(c3cccc(Cl)c3)=NN2c2ccc(S(N)(=O)=O)cc2)cc1 (centres undefined) [UNM-0000306134] |
| > 30 |  | COc1ccc(C2CC(c3ccc(Br)cc3)=NN2c2ccc(S(N)(=O)=O)cc2)cc1 (centres undefined) [UNM-0000306138] |
| > 30 |  | NS(=O)(=O)c1ccc(N2N=C(c3ccccc3)CC2c2cccc(Br)c2)cc1 (centres undefined) [UNM-0000306147] |
| > 30 |  | Cc1ccccc1C1CC(c2ccccc2)=NN1c1ccc(S(N)(=O)=O)cc1 (centres undefined) [UNM-0000306148] |
| > 30 |  | COc1ccc(C2CC(c3ccccc3C)=NN2c2ccc(S(N)(=O)=O)cc2)cc1 (centres undefined) [UNM-0000306152] |
| > 30 |  | COc1ccc(C2CC(c3cccc(C)c3)=NN2c2ccc(S(N)(=O)=O)cc2)cc1 (centres undefined) [UNM-0000306153] |
| > 30 |  | NS(=O)(=O)c1ccc(N2N=C(c3ccccc3)CC2c2ccc(Br)cc2)cc1 (centres undefined) [UNM-0000306160] |
| > 30 |  | NS(=O)(=O)c1ccc(N2N=C(c3ccccc3)CC2c2cccc(Cl)c2)cc1 (centres undefined) [UNM-0000306161] |
